Several values for one entry are separate records, joined by “and”; a condition that tells them apart may be missing. Equal entries are not always repeated. Where two headings read alike, the source gives them in different places.
Target: T1, β-secretase(BACE) (Homo sapiens, UniProt P56817)
T1 construct: purchased Panvera
Test: BACE FS1% Inhibition Assay
Type: biochemical
Conditions: FS1 substrate
How it was run: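 Human BACE (4 μg/mL working solution) preincubated 20 min at room temperature with compound, then FS1 substrate (300 μg/mL working solution) added and incubated 1 h at room temperature. Percent inhibition calculated at each compound concentration against blank and vehicle controls.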

[1] = 3 μM test compound, read-out: % Inhibition (FS) 3 μM
[2] = 0.3 μM test compound, read-out: % Inhibition (FS)
[3] = 1 μM test compound, read-out: % Inhibition (FS)
[4] = 3 μM test compound, read-out: % Inhibition (FS)

T1 sequence (P56817 46-501): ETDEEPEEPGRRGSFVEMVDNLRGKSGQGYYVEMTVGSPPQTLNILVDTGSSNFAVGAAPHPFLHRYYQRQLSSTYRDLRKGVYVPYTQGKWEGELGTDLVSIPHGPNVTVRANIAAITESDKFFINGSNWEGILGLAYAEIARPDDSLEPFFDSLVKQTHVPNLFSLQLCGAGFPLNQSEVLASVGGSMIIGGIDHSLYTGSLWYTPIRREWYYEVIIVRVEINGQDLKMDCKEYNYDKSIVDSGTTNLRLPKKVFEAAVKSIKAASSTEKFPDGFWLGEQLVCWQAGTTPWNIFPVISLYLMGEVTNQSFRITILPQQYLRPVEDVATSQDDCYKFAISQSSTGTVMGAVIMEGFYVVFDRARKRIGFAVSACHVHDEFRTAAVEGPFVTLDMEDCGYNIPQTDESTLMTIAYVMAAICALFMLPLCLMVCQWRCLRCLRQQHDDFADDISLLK

SMILES	% Inhibition (FS) 0.3 μM (0.3 μM test compound) [%]	% Inhibition (FS) 1 μM (1 μM test compound) [%]	% Inhibition (FS) 3 μM (3 μM test compound) [%]	also measured
CN(C(=O)c1cccc(CN2Cc3cc(Oc4cccnc4)ccc3N=C2N)c1)C1CCCCC1 [Compound 230]	<30	33	<30	
CN(C(=O)c1ccc2c(c1)C(N1Cc3cc(Oc4ccccc4)ccc3N=C1N)c1ccccc1-2)C1CCCCC1 (stereo not drawn) [Compound 125, 9-(2-Amino-6-phenoxy-4H-quinazolin-3-yl)-9H-fluorene-2-carboxylic acid cyclohexyl-methyl-amide]				inhibition at 3 µM [1]: 42%; inhibition at 10 µM (10 μM test compound, read-out: % Inhibition (FS) 10 μM): 80%
Cc1cc(C)cc(Sc2ccc3c(c2)CN(Cc2cccc(C(=O)N(C)C4CCCCC4)c2)C(N)=N3)c1 [Compound 409]	<30	<30	72	
NC1=Nc2ccc(Oc3ccccc3)cc2CN1C(CNC(=O)C1CCCCC1)Cc1ccc(O)cc1 (stereo not drawn) [Compound 616]			<30	
CC(=O)c1cccc(-c2ccc3c(c2)CN(CCNC(=O)CC2CCCC2)C(N)=N3)c1 [Compound 582]	<30	<30	<30	
CN(C(=O)CC[C@@H](C1CCCCC1)N1Cc2cc(Oc3ccccc3)ccc2N=C1N)C1CCC2(CC1)OCCO2 [Compound 710]				% Inhibition (FS) (0.3 μM test compound): <30%; % Inhibition (FS) (1 μM test compound): 68%; % Inhibition (FS) (3 μM test compound): 126%
NC1=Nc2ccc(-c3ccc4ccccc4c3)cc2CN1CCNC(=O)C1CCC1 [Compound 663]				% Inhibition (FS) (0.3 μM test compound): <30%; % Inhibition (FS) (1 μM test compound): <30%; % Inhibition (FS) (3 μM test compound): <30%
CN(C(=O)c1cccc(CN2Cc3cc(Br)ccc3N=C2N)c1)C1CCCCC1 [Compound 802]				inhibition at 0.3 µM [2]: < 30%; inhibition at 1 µM [3]: < 30%; inhibition at 3 µM [4]: 50%
CN(C(=O)c1cccc(C(CC2CCCCC2)N2Cc3cc(Oc4ccccc4)ccc3N=C2N)c1)C1CCCCC1 (stereo not drawn) [Compound 310]	<30	<30	57	
CN(C(=O)CCC(C1CCCCC1)N1Cc2cc(Oc3ccccc3)ccc2N=C1N)C1CCC(C#N)CC1 (stereo not drawn) [Compound 769]				% Inhibition (FS) (0.3 μM test compound): <30%; % Inhibition (FS) (1 μM test compound): 61%; % Inhibition (FS) (3 μM test compound): 107%
CCCC(=O)NCCN1Cc2cc(-c3cnc4ccccc4c3)ccc2N=C1N [Compound 673]				% Inhibition (FS) (0.3 μM test compound): 34%; % Inhibition (FS) (1 μM test compound): <30%; % Inhibition (FS) (3 μM test compound): <30%
CC(C)(C)C(=O)NCCN1Cc2cc(Br)ccc2N=C1N [Compound 809]				inhibition at 0.3 µM [2]: < 30%; inhibition at 1 µM [3]: < 30%; inhibition at 3 µM [4]: 32%
CC(C)Oc1ccc2c(c1)CN(Cc1cccc(C(=O)N(C)C3CCCCC3)c1)C(N)=N2 [Compound 519]	<30	<30	<30	
NC1=Nc2ccc(-c3ccccc3F)cc2CN1CCNC(=O)C12CC3CC(CC(C3)C1)C2 [Compound 644]	46	72	104	
CC(C)CCC(=O)N1CCCC(N2Cc3cc(Oc4ccccc4)ccc3N=C2N)C1 (stereo not drawn) [Compound 613]	36	31	<30	
Cc1ccccc1-c1ccc2c(c1)CN(CCNC(=O)C1CCC(C(F)(F)F)CC1)C(N)=N2 (stereo not drawn) [Compound 694]				% Inhibition (FS) (0.3 μM test compound): <30%; % Inhibition (FS) (1 μM test compound): <30%; % Inhibition (FS) (3 μM test compound): 84%
NC1=Nc2ccc(Oc3ccccc3)cc2CN1Cc1cccc(C(=O)NCCc2ccc(S(N)(=O)=O)cc2)c1 [Compound 188]	<30	<30	<30	
NC1=Nc2ccc(Oc3ccccc3)cc2CN1CC1CCN(C(=O)C23CC4CC(CC(C4)C2)C3)CC1 [Compound 527]	<30	<30	51	
CN(C(=O)CCC(C1CCCCC1)N1Cc2cc(Oc3ccccc3)ccc2N=C1N)C1CCC(C(=O)OCc2ccccc2)CC1 (stereo not drawn) [Compound 760]				% Inhibition (FS) (0.3 μM test compound): <30%; % Inhibition (FS) (1 μM test compound): 44%; % Inhibition (FS) (3 μM test compound): 89%

SMILES	% Inhibition (FS) 0.3 μM (0.3 μM test compound) [%]	% Inhibition (FS) 1 μM (1 μM test compound) [%]	% Inhibition (FS) 3 μM (3 μM test compound) [%]	also measured
CN(C(=O)c1cccc(CN2Cc3cc(-c4ccc(C(N)=O)cc4)ccc3N=C2N)c1)C1CCCCC1 [Compound 162]	<30	<30	<30	
CC(C)(C)c1ccc(C(=O)NCCN2Cc3cc(Oc4ccccc4)ccc3N=C2N)cc1 [Compound 156]			<30	% Inhibition (FS) 10 μM (10 μM test compound): 40%
NC1=Nc2ccc(Oc3ccccc3)cc2CN1C[C@H](NC(=O)C1CCCCC1)C1CCCCC1 [Compound 636, (R)-enantiomer of cyclohexanecarboxylic acid [2-(2-amino-6-phenoxy-4H-quinazolin-3-yl)-1-cyclohexyl-ethyl]-amide]				inhibition at 0.3 µM (0.3 μM test compound, read-out: % Inhibition (FS) 0.3 μM): < 30%; inhibition at 1 µM (1 μM test compound, read-out: % Inhibition (FS) 1 μM): < 30%; inhibition at 3 µM [1]: 30%
CNC(=O)C1CCC(N(C)C(=O)CCC(C2CCCCC2)N2Cc3cc(Oc4ccccc4)ccc3N=C2N)CC1 (stereo not drawn) [Compound 765]				% Inhibition (FS) (0.3 μM test compound): <30%; % Inhibition (FS) (1 μM test compound): 56%; % Inhibition (FS) (3 μM test compound): 97%
NC1=Nc2ccc(-c3ccccc3-c3ccccc3)cc2CN1CCNC(=O)C1CCCCC1 [Compound 544]	32	<30	51	
CC1CCCCN1C(=O)CCCC(CCC(=O)N1CCCCC1C)N1Cc2cc(Oc3ccccc3)ccc2N=C1N (stereo not drawn) [Compound 504]	<30	31	96	
CCCC(=O)NCCN1Cc2cc(-c3ccccc3C)ccc2N=C1N [Compound 659]	43	69	100	
CN(C)c1ccc(C(=O)NCCN2Cc3cc(Oc4ccccc4)ccc3N=C2N)cc1 [Compound 189]	<30	<30	<30	
COc1cccc(C)c1Oc1ccc2c(c1)CN(Cc1cccc(C(=O)N(C)C3CCCCC3)c1)C(N)=N2 [Compound 468]	<30	<30	<30	
CN(C(=O)c1ncoc1C(Cc1ccccc1)N1Cc2cc(Oc3ccccc3)ccc2N=C1N)C1CCCCC1 (stereo not drawn) [Compound 559]	<30	<30	<30	
COc1ccccc1-c1ccc2c(c1)CN([C@@H](CCC(=O)N(C)C1CCCCC1)C1CCCCC1)C(N)=N2 [Compound 506]	106	115	128	
COc1ccccc1-c1ccc2c(c1)CN(CCNC(=O)C1CCN(C(C)=O)CC1)C(N)=N2 [Compound 491]	<30	<30		% Inhibition (FS) 3 μM (3 μM test compound, 3 µM): 44% and <30%
NC1=Nc2ccc(-c3cnc4ccccc4c3)cc2CN1CCNC(=O)C1CCC1 [Compound 670]				% Inhibition (FS) (0.3 μM test compound): <30%; % Inhibition (FS) (1 μM test compound): <30%; % Inhibition (FS) (3 μM test compound): 44%
CN(C(=O)c1cccc(CN2Cc3cc(Nc4ccc(N5CCOCC5)cc4)ccc3N=C2N)c1)C1CCCCC1 [Compound 439]	<30	<30	<30	
NC1=Nc2ccc(Oc3ccccc3)cc2CN1C1CCN(C(=O)C2CCCCC2)C1 (stereo not drawn) [Compound 119]			42	% Inhibition (FS) 10 μM (10 μM test compound): 75%
CC(C)CCC(=O)NCCN1Cc2cc(-c3cnc4ccccc4c3)ccc2N=C1N [Compound 675]				% Inhibition (FS) (0.3 μM test compound): 35%; % Inhibition (FS) (1 μM test compound): <30%; % Inhibition (FS) (3 μM test compound): <30%
CC(C)N1CCC(N(C)C(=O)CC[C@@H](C2CCCCC2)N2Cc3cc(Oc4ccccc4)ccc3N=C2N)CC1 [Compound 728]				% Inhibition (FS) (0.3 μM test compound): 43%; % Inhibition (FS) (1 μM test compound): 58%; % Inhibition (FS) (3 μM test compound): 97%
CN(Cc1csc(-c2ccccc2)n1)C(=O)CC[C@@H](C1CCCCC1)N1Cc2cc(-c3ccccc3F)ccc2N=C1N [Compound 722]				% Inhibition (FS) (0.3 μM test compound): 35%; % Inhibition (FS) (1 μM test compound): 35%; % Inhibition (FS) (3 μM test compound): 78%
CCCCCCCCCC(=O)NCCN1Cc2cc(Oc3ccccc3)ccc2N=C1N [Compound 142]			<30	% Inhibition (FS) 10 μM (10 μM test compound): 38%
